A short description of series [1]: refractive index (Na D-line) (dimensionless). To be noted: 293.15 K; 101.33 kPa; Liquid; Standard Abbe refractometry.
The conditions of series [2]: Liquid; for mass density: 293.15 K, 101.33 kPa, Vibrating tube method; for vapor or sublimation pressure: Ebulliometric method (Recirculating still).

Experimental findings from the NIST ThermoML archive (doi:10.1021/je400214b) are described below.

The refractive index is the speed of light in vacuum divided by its phase velocity in the sample. As a reminder, the mass density is the mass of a sample divided by its volume. The vapor or sublimation pressure is the equilibrium pressure above the liquid or solid.

Numbers after ± are expanded uncertainties.

Take `C=CC#N` [acrylonitrile]: the refractive index in series [1] came out at 1.3909 ± 0.0007. Besides, in series [2], the mass density is on record as 806 ± 0.2 kg/m3. Also, the “vapor or sublimation pressure” value in series [2] (350.15 K) is on record as 96.5 ± 9.7 kPa.
For the compound `CCO` [ethanol], in series [1], the refractive index was 1.361 ± 0.0007. The mass density in series [2] was determined as 788.9 ± 0.2 kg/m3. Besides, the “vapor or sublimation pressure” value in series [2] (351.15 K) is on record as 96.5 ± 9.7 kPa.
For `CCCCCCCO` [heptan-1-ol], the “vapor or sublimation pressure” value in series [2] (449.15 K) was found to be 96.5 ± 9.7 kPa.
For the compound `O=[N+]([O-])c1ccccc1` [nitrobenzene], the refractive index in series [1] came out at 1.5529 ± 0.0007. Also, the mass density in series [2] was found to be 1198.8 ± 0.2 kg/m3. Further, the “vapor or sublimation pressure” value in series [2] (483.15 K) is on record as 96.5 ± 9.7 kPa.
